In ChEMBL document CHEMBL1201862, “PubChem BioAssay data set” (2004):
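Compound exposure: 48 hours, 5 concentrations, 96-well plates. GI50: concentration for 50% inhibition of growth.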 Calls of active or inactive are those of the source. Rule as the data show it: active = GI50 up to about 1.1 µM and inactive = higher.

Columns and labels:
Experiment in all cases: NCI anticancer screen, dose series, 48 h
[1] = system: ACHN
[2] = system: COLO 205
[3] = system: HCC 2998
[4] = system: HCT-116
[5] = system: HOP-92
[6] = system: KM12
[7] = system: LOX IMVI
[8] = system: MDA-MB-435
[9] = system: Malme-3M
[10] = system: NCI/ADR-RES
[11] = system: OVCAR-8
[12] = system: RXF 393
[13] = system: SF-268
[14] = system: SF-295
[15] = system: SK-MEL-2
[16] = system: SK-MEL-5
[17] = system: SK-OV-3
[18] = system: EKVX
[19] = system: MOLT-4

Row | Structure (SMILES) | GI50 [1] | GI50 [2] | GI50 [3] | GI50 [4] | GI50 [5] | GI50 [6] | GI50 [7] | GI50 [8] | GI50 [9] | GI50 [10] | GI50 [11] | GI50 [12] | GI50 [13] | GI50 [14] | GI50 [15] | GI50 [16] | GI50 [17] | GI50 [18] | GI50 [19]
1 | CCOC(=O)n1c(=O)nc2c3c(ncn21)Oc1c(c(-c2ccccc2)nn1-c1ccccc1)C3c1ccc(Cl)cc1 (centres undefined) | 1.71 µM (inactive) | 1.32 µM (inactive) | 0.631 µM (active) | 1.5 µM (inactive) | 1.36 µM (inactive) | 1.56 µM (inactive) | 1.46 µM (inactive) | 1.67 µM (inactive) | 1.84 µM (inactive) | 1.73 µM (inactive) | 1.69 µM (inactive) | 1.57 µM (inactive) | 1.58 µM (inactive) | 1.86 µM (inactive) | 1.84 µM (inactive) | 1.7 µM (inactive) | 2.86 µM (inactive) |  | 
2 | Cc1ccc(NC(=O)c2cccc(OP(=O)(O)Nc3ccc(C)cc3)c2)cc1 | 57.4 µM (inactive) | > 100 µM (inactive) | > 100 µM (inactive) | > 100 µM (inactive) | 37.2 µM (inactive) | > 100 µM (inactive) | > 100 µM (inactive) | > 100 µM (inactive) | > 100 µM (inactive) | > 100 µM (inactive) | > 100 µM (inactive) | > 100 µM (inactive) | > 100 µM (inactive) | > 100 µM (inactive) | > 100 µM (inactive) | > 100 µM (inactive) | > 100 µM (inactive) | > 100 µM (inactive) | 64.6 µM (inactive)
3 | COC(=O)CC1C2CC3C(C2=O)C13 (centres undefined) | > 100 µM (inactive) | > 100 µM (inactive) | > 100 µM (inactive) | > 100 µM (inactive) | > 100 µM (inactive) | > 100 µM (inactive) | > 100 µM (inactive) | > 100 µM (inactive) | > 100 µM (inactive) | > 100 µM (inactive) | > 100 µM (inactive) | > 100 µM (inactive) | > 100 µM (inactive) | > 100 µM (inactive) | > 100 µM (inactive) | > 100 µM (inactive) | > 100 µM (inactive) | > 100 µM (inactive) | > 100 µM (inactive)
4 | Cc1cccc2c(NCCCN(C)C)c3c([N+](=O)[O-])ccc(C)c3nc12 | 0.0908 µM (active) | 0.0802 µM (active) | < 0.0255 µM (active) | 0.1 µM (active) | 0.0916 µM (active) | 0.103 µM (active) | 0.197 µM (active) | 0.191 µM (active) | 0.175 µM (active) | 0.337 µM (active) | 0.206 µM (active) | 0.0647 µM (active) | 0.198 µM (active) | 0.0689 µM (active) | 0.132 µM (active) | 0.082 µM (active) | 0.278 µM (active) | 0.0855 µM (active) | 0.0178 µM (active)
5 | Cc1cccc(CP(Cc2cccc(C)c2)CC2(Cp3c4ccccc4c4ccccc43)COC2)c1 | 4.71 µM (inactive) | 0.249 µM (active) | 12.3 µM (inactive) | 0.252 µM (active) | 1.99 µM (inactive) | 2.51 µM (inactive) | 1.42 µM (inactive) | 5.71 µM (inactive) | 5.13 µM (inactive) | 53.7 µM (inactive) | 1.78 µM (inactive) | > 20.3 µM (inactive) | 3.79 µM (inactive) | 2.18 µM (inactive) | 7.23 µM (inactive) | 2.55 µM (inactive) | > 100 µM (inactive) | 14.1 µM (inactive) | 0.662 µM (active)
6 | Cn1cnc(C(N)=[Se])c1N | 2.6 µM (inactive) | 2.09 µM (inactive) | 15.4 µM (inactive) | 3.69 µM (inactive) | 6.56 µM (inactive) | 2.33 µM (inactive) | 3.26 µM (inactive) | 5.26 µM (inactive) | 2.69 µM (inactive) | 1.89 µM (inactive) | 1.92 µM (inactive) | 1.6 µM (inactive) | 1.95 µM (inactive) | 0.244 µM (active) | 2.27 µM (inactive) | 3.21 µM (inactive) | 1.25 µM (inactive) | 2.05 µM (inactive) | 
7 | O=C1c2ccccc2NC(c2cc(Cl)cc(Cl)c2O)N1CCc1ccccn1 (centres undefined) | 87.3 µM (inactive) | > 100 µM (inactive) | 53.2 µM (inactive) | 67 µM (inactive) | 52.7 µM (inactive) | 64 µM (inactive) | > 100 µM (inactive) | 68.1 µM (inactive) | 30.8 µM (inactive) | 60.4 µM (inactive) | 80.2 µM (inactive) | 44.7 µM (inactive) | > 100 µM (inactive) | > 100 µM (inactive) | > 100 µM (inactive) | > 100 µM (inactive) | > 100 µM (inactive) | 62.5 µM (inactive) | 
8 | Nc1ccc2c(c1)Nc1c3ccccc3nc3cccc-2c13 | 1.43 µM (inactive) | 1.34 µM (inactive) | 1.2 µM (inactive) | 1.48 µM (inactive) | 1.6 µM (inactive) | 1.32 µM (inactive) | 1.3 µM (inactive) | 1.81 µM (inactive) | 1.85 µM (inactive) | 1.66 µM (inactive) |  | 1.64 µM (inactive) | 1.73 µM (inactive) | 1.29 µM (inactive) | 1.73 µM (inactive) | 1.75 µM (inactive) | 1.61 µM (inactive) | 1.69 µM (inactive) | 0.391 µM (active)
9 | COc1cc(NCc2ccc3nc(-c4ccccc4)c(N)nc3c2)cc(OC)c1OC | 29.4 µM (inactive) | 18.8 µM (inactive) | 51.8 µM (inactive) | 18.1 µM (inactive) | 12.5 µM (inactive) | 26.5 µM (inactive) | 41.9 µM (inactive) | 22.3 µM (inactive) | 24.9 µM (inactive) | 22.2 µM (inactive) | 27.7 µM (inactive) | 16 µM (inactive) | 34.8 µM (inactive) | 35.6 µM (inactive) | 31 µM (inactive) | 15.3 µM (inactive) | 42.3 µM (inactive) | 33.2 µM (inactive) | 23.3 µM (inactive)
10 | COC1(OC)C=CC(=O)C=C1 | 2.54 µM (inactive) | 7.69 µM (inactive) | 3.68 µM (inactive) | 1.3 µM (inactive) | 4.43 µM (inactive) | 7.52 µM (inactive) | 0.667 µM (active) | 3.31 µM (inactive) | < 0.01 µM (active) | 4.2 µM (inactive) | 1.83 µM (inactive) | 0.701 µM (active) | 4.09 µM (inactive) | 11 µM (inactive) | 6.81 µM (inactive) | 2.8 µM (inactive) | 13 µM (inactive) | 6.78 µM (inactive) | 2.33 µM (inactive)
11 | CN(CCO)CC(=O)CC(O)(C(F)(F)F)C(F)(F)F | 27.7 µM (inactive) | 35.3 µM (inactive) | 56.2 µM (inactive) | 30.8 µM (inactive) | 22.5 µM (inactive) | 39.8 µM (inactive) | 31.4 µM (inactive) | 36 µM (inactive) | 34.7 µM (inactive) | 41 µM (inactive) | 41.3 µM (inactive) | 19.5 µM (inactive) |  | 30 µM (inactive) | 33 µM (inactive) | 16.3 µM (inactive) | 26.4 µM (inactive) | 31.2 µM (inactive) | 52.6 µM (inactive)
12 | NC(=O)c1cc2ccccc2o/c1=N/c1ccccc1 | > 100 µM (inactive) | > 100 µM (inactive) | > 100 µM (inactive) | > 100 µM (inactive) | > 100 µM (inactive) | > 100 µM (inactive) | > 100 µM (inactive) | > 100 µM (inactive) | > 100 µM (inactive) | > 100 µM (inactive) | > 100 µM (inactive) | > 100 µM (inactive) | > 100 µM (inactive) |  | > 100 µM (inactive) | > 100 µM (inactive) | > 100 µM (inactive) | > 100 µM (inactive) | > 100 µM (inactive)
13 | NC1=C(Cl)C(=O)c2c(O)ccc(O)c2C1=O | 4.88 µM (inactive) | 1.69 µM (inactive) | 2.84 µM (inactive) | 2.47 µM (inactive) | 12.1 µM (inactive) | 2.92 µM (inactive) | 1.79 µM (inactive) | 2.01 µM (inactive) | 0.279 µM (active) | 3.61 µM (inactive) | 3.82 µM (inactive) | 7.45 µM (inactive) | 3.83 µM (inactive) | 2.1 µM (inactive) | 4.72 µM (inactive) | 0.735 µM (active) | 20.9 µM (inactive) | 12 µM (inactive) | 6.98 µM (inactive)
14 | O=C1CSC(c2ccccc2O)N1c1ccc(-n2c(-c3ccccc3)nc3ccccc3c2=O)cc1 (centres undefined) | 19.7 µM (inactive) | 30.3 µM (inactive) | 28.5 µM (inactive) | 11 µM (inactive) | 20.8 µM (inactive) | 20.9 µM (inactive) | 13.1 µM (inactive) | 24.4 µM (inactive) | 22.2 µM (inactive) | 21 µM (inactive) | 24.3 µM (inactive) | 42.7 µM (inactive) | 50.1 µM (inactive) | 16.4 µM (inactive) | 24.3 µM (inactive) | 16.1 µM (inactive) | 23.7 µM (inactive) |  | 13.2 µM (inactive)
15 | O[C@H]1[C@H](O)[C@@H](O)[C@H](O)[C@@H](O)[C@H]1O [INOSITOL] | > 1000 µM (inactive) | > 1000 µM (inactive) | > 1000 µM (inactive) | > 1000 µM (inactive) | > 1000 µM (inactive) |  | > 1000 µM (inactive) | > 1000 µM (inactive) | > 1000 µM (inactive) | > 1000 µM (inactive) | > 1000 µM (inactive) | > 1000 µM (inactive) | > 1000 µM (inactive) |  | > 1000 µM (inactive) | > 1000 µM (inactive) | > 1000 µM (inactive) |  | 154 µM (inactive)
